From patent US20240197890A1, “FLAVONE DERIVATIVES AND USES IN TARGETING CK2-MEDIATED DISEASES AND CONDITIONS” (Salk Institute for Biological Studies, priority 2020, published 2024)

Experiments:
[1] = system: IκB S32; assay: Immunoblot of IκB S32 in IL1-β-stimulated astrocytes; assay type: cell-based, human; settings: after 5 hours
Procedure: Western blotting. […] Cells were dissociated with 1:1 Accutase:papain for 3 min at rt, pelleted for 5 min at 800 g, and washed twice with cold DPBS. Pellets were lysed with RIPA buffer (Sigma R0278) supplemented with Halt protease inhibitor cocktail (Thermo Fisher 78445) and clarified by centrifugation (16,000 g, 10 min, 4° C.). Protein concentration was determined by BCA assay (Thermo Fisher). Proteins were denatured in 1×LDS Buffer and 2.5% beta-mercaptoethanol (X) for 10 min at 70° C., separated on Bolt 4-12% Bis-Tris Plus polyacrylamide gels (Thermo Fisher), transferred to PVDF membranes using the iBlot 2 Dry Blotting System, and blocked with 0.1% casein-PBS (Bio-Rad) for 1 h at room temperature. The blots were incubated with primary antibodies overnight at 4° C. in PBS containing 0.1% casein and 0.2% Tween-20. Antibodies used: rabbit anti-CK2a1 (Bethyl #, 1:5000), rabbit anti-CK2a2 (Bethyl #, 1:5000), mouse anti-GAPDH (Fitzgerald #10-1501, 1:20,000), mouse anti-NF-KB (CST #6956S, 1:1000), pNF-KB S529 (TFS #14-9864-82, 1:100), LC3B (CST 2775, 1:1000), ACO2 (CST 6922, 1:1000), rabbit HMGB1 (Novus #NB1002322, 1:1000), mouse anti-IκBα (CST #4814S, 1:1000), mouse anti-IκBa pS32 (SC #8404, 1:500), HA-tag (Bethyl #A190-108A, 1:20000). […] The blots were imaged using the Odyssey CLx imaging system and blots were analyzed on the ImageStudio software (LI-COR). […]

[2] = system: AKT pS129; assay: AKT pS129 levels in IL1β-stimulated primary astrocytes; assay type: cell-based; settings: IL1-β for 5 h
Description: AKT pS129 is a known direct CK2 substrate.

[3] = system: IL6 expression; assay: IL6 expression in AD patient iPSC-derived astrocytes after IL1-β stimulation (qRT-PCR); assay type: cell-based, human; settings: controls and AD astrocytes
[4] = system: LPS-induced cytokine release in human iPSC-derived microglia; assay: Cytokine release assay in LPS-stimulated iPSC-derived microglia; assay type: cell-based; settings: 20 μM, 5 hours, panel of 36 cytokines
Procedure: Cytokine release assay. […] Subsequently, media cleared of cells and debris was collected, snap-frozen and stored at -80 C until processing with the Human Cytokine Array kit (R&D Systems, Catalog #ARY005). Briefly, media was diluted in Array Buffer 4 and incubated with a cocktail of biotinylated detection antibodies for 1 h at room temperature with rocking. The resulting immunocomplexes were incubated with nitrocellulose membranes spotted with capture antibodies overnight at 4 C (see below for full list of targets). The membranes were washed 4× with Wash Buffer, then incubated with IRDye 800CW Streptavidin for 30 minutes at room temperature (1:2000 in Array Buffer 5, LI-COR #926-32230). The membranes were washed 4× and imaged with an Odyssey CLx instrument. Intensity for each spot was quantified with ImageStudio. Technical duplicate values for each target were averaged, and we determined differential cytokine release by microglia exposed to LPS+vehicle versus vehicle only (n=2 biological replicates, two-tailed t-tests, P<0.05).

[5] = system: IL-6, IL-8, TNF-α and MCP-1 in primary human cerebellar astrocytes (HCA); assay: Flow-cytometry assay of intracellular cytokine production in IL1-β-treated astrocytes; assay type: cell-based
Procedure: Flow cytometry. For each well of HCA in a 6-well plate, 2 mL of fresh media with GolgiPLUG (BD #555029, 1:1000) and GolgiSTOP (BD #554724, 1:1000) with 20 μM compound or vehicle (DMSO) and IL1-β 10 ng/mL or DPBS was added. The cells were incubated for 5 h at 37° C. Cells were collected with TrypLE and plated into a 96-well V-bottom plate for staining. The plate was centrifuged for 5 min, 1300 rpm, 4° C. to pellet cells, which were subsequently resuspended in 100 μl DPBS with 1 μl Zombie Violet (Biolegend #423113) and 5 μl Human Trustain FC block (Biolegend #422302) per well for 15 min at room temperature in the dark. The plate was centrifuged, supernatant was aspirated, and the cells were washed with 100 μl/well DPBS. Cells were fixed with 100 μl/well of Cytofix/Cytoperm (BD) for 20 min at 4° C. The plate was centrifuged, supernatant was aspirated, and cells were resuspended in 100 μl Permwash (BD) and incubated for 15 min at 4° C. The plate was centrifuged, supernatant was aspirated, and cells were incubated with 100 μl/well of Ab mix or isotype mix in Permwash (see below) for 20 min at 4° C., followed by centrifugation and 2× PermWash washes. The cells were resuspended in 100 ul DPBS and transferred to FACS tubes containing 200 ul of PBS (total volume per tube 300 μl) for analysis on FACS Analyzers (LSRII or Fortessa).
Primary human cerebellar astrocytes (HCA) were co-treated with 20 μM of each compound or vehicle (DMSO), 10 ng/mL IL1-β, and a protein transport inhibitor for 6 hours, and then processed for intracellular staining of pro-inflammatory cytokines IL-6, IL-8, TNF-α, and MCP-1. […]; in vitro IC50 values are for CK2 as reported in the literature).

SMILES: COc1cc(-c2cc(=O)c3c(O)cc(O)cc3o2)ccc1O [CHR, chrysoeriol]
- IκB S32 levels [1]: decreased
- AKT pS129 levels [2]: reduced
- IL6 expression after IL1-β stimulation [3]: reduced
- release of LPS-induced pro-inflammatory cytokines [4]: significantly blocked
- suppression of IL1-β-induced IL-6, IL-8, TNF-α and MCP-1 cytokine upregulation ([5]; 20 μM, human astrocytes): strong suppressive activity
- summary of SAR data, activity class ([5]; at 20 μM, FIG. 5A): active
